Assay results: patent publication US10421964B2, “UNA oligomers and compositions for treating amyloidosis” (Arcturus Therapeutics, Inc., priority 2015, dated 2019)
[UNA] = unlocked nucleic acid; m = 2'-O-methyl; r = 2'-OH (RNA)

Key:
[1] = lipid; cited from earlier work
[2] = test system: V30M gene reporter variant (nucleotide sequence 264 to 304 of human TTR containing the point mutation at position 284); experiment: PSICHECK reporter assay against V30M gene reporter variant; assay type: cell-based; conditions: for effectiveness against V30M compared with V30V: V30V and V30M gene reporter variants; for selectivity against V30M over V30V: IC50 against V30V over IC50 against V30M; for IC50: V30M gene reporter variant
Procedure: (§1) Conventional siRNAs that are complementary to the […] mRNA were tiled around position 284. […] Positions 5, 9, 14 and 15 appear to be more accessible to silencing than other positions. […] Four conventional siRNA variations, namely V30M-P5, V30M-P9, V30M-P14, and V30M-P15, were prepared.
(§2) Thus, the selectivity of the conventional siRNAs against V30M over V30V was no more than 5.6.

[3] = test system: V30V gene reporter variant (nucleotide sequence 264 to 304 of human TTR without the point mutation at position 284); experiment: PSICHECK reporter assay against V30V gene reporter variant; assay type: cell-based
Procedure: as §1, §2

Transthyretin TTR mRNA = experiment: Knockdown of TTR protein in plasma of Cynomolgus monkeys after single IV dose of liposomal UNA oligomer (LC-MS/MS SRM); assay type: in vivo, Cynomolgus monkeys (Macaca fascicularis)
Procedure: A single-dose, pharmacokinetic and pharmacodynamic study of liposomally formulated UNA Oligomers targeting transthyretin (TTR) mRNA following intravenous infusion in Cynomolgus monkeys was performed.
Cynomolgus monkeys (Macaca fascicularis) were selected for this study because the TTR mRNA of Cynomolgus monkeys is homologous to human TTR mRNA, making them a good model for screening the potency of UNA oligomers targeting to TTR mRNA.
In this study, the knockdown of Transthyretin protein was evaluated as a result of treatment with UNA oligomers targeting Transthyretin TTR mRNA, based on SEQ ID NOs:46/86, 59/99, and 60/100, delivered in a liposomal formulation to male Cynomolgus monkeys. Measurements were made following a single intravenous (IV) dose administration. TTR protein concentration in plasma samples was assessed by LC-MS/MS at various time points.
Animals in Groups 1 through 8 were administered the test articles on Day 1 at 0.3 mg/kg, dose volume 6.25 mL/kg, concentration 0.048 mg/mL. Doses were administered as a 15-minute intravenous (IV) infusion, +1 minute, using a pump and disposable syringe.
For each animal, infusion start and end times were recorded; and subsequent sample collection target times were determined based on infusion end time (t=0). All blood specimens, approximately 1 mL, were collected by venipuncture from a peripheral vein from restrained, conscious animals.
The Monkey TTR SRM assay was used, which is a high throughput absolute protein quantitation assay using Selected Reaction Monitoring (SRM) technology platform. In a single SRM assay, the panel can multiplex up to 200 proteins. The assay was performed on a targeted absolute protein quantitation platform, where the key technology was SRM, sometimes also referred to as Multiple Reaction Monitoring (MRM). In a triple-quadrupole (QQQ) mass spectrometer, SRM/MRM is a tandem selection process where selecting peptides by precursor m/z is followed by selecting fragmentations (transitions) of the targeted peptide.

Compound	silencing V30M TTR [2]	activity compared to the conventional siRNA, each targeted to V30M [2]	selectivity against V30M over V30V compared to the conventional siRNA [2]	effectiveness against V30M compared with V30V [2]	also measured
CCCCCC/C=C\COC(=O)CCCCCCCN(CCCCCCCC(=O)OC/C=C\CCCCCC)C(=O)CSCCCN(CC)CC [ATX- 008]	–	–	–	–	pKa [1]: 10
CCCCCC/C=C\COC(=O)CCCCCCCN(CCCCCCCC(=O)OC/C=C\CCCCCC)C(=O)SCCCN(CC)CC [ATX- 012]	–	–	–	–	pKa [1]: 10
ĞCCAUGCAUGUGUUCAGAAŨmU / UUCUGAACACAUGCAUĞGCŨmU (chain 1 GCCAUGCAUGUGUUCAGAAUU; chain 2 UUCUGAACACAUGCAUGGCUU; siRNA; chain 1: sugars from the 5' end [UNA]1 r18 [UNA]1 m1, backbone not given here; chain 2: sugars from the 5' end r16 [UNA]1 r2 [UNA]1 m1, backbone not given here) [P16U17]	effective in silencing V30M TTR	–	–	–	–
ĞCCAUGCAUGUGUUCAGAAŨmU / UUCUGAACACAUGCAŨGGCŨmU (chain 1 GCCAUGCAUGUGUUCAGAAUU; chain 2 UUCUGAACACAUGCAUGGCUU; siRNA; chain 1: sugars from the 5' end [UNA]1 r18 [UNA]1 m1, backbone not given here; chain 2: sugars from the 5' end r15 [UNA]1 r3 [UNA]1 m1, backbone not given here) [P16U16]	effective in silencing V30M TTR	superior to the activity of the conventional siRNA V30M-P16	substantially greater than for the conventional siRNA V30M-P16	more effective against V30M than V30V	–
ĞCCAUGCAUGUGUUCAGAAŨmU / UUCUGAACACAUGCÃUGGCŨmU (chain 1 GCCAUGCAUGUGUUCAGAAUU; chain 2 UUCUGAACACAUGCAUGGCUU; siRNA; chain 1: sugars from the 5' end [UNA]1 r18 [UNA]1 m1, backbone not given here; chain 2: sugars from the 5' end r14 [UNA]1 r4 [UNA]1 m1, backbone not given here) [P16U15]	effective in silencing V30M TTR	superior to the activity of the conventional siRNA V30M-P16	substantially greater than for the conventional siRNA V30M-P16	more effective against V30M than V30V	–
ĞCCAUGCAUGUGUUCAGAAŨmU / UUCUGAÃCACAUGCAUGGCŨmU (chain 1 GCCAUGCAUGUGUUCAGAAUU; chain 2 UUCUGAACACAUGCAUGGCUU; siRNA; chain 1: sugars from the 5' end [UNA]1 r18 [UNA]1 m1, backbone not given here; chain 2: sugars from the 5' end r6 [UNA]1 r12 [UNA]1 m1, backbone not given here) [P16U7]	effective in silencing V30M TTR	superior to the activity of the conventional siRNA V30M-P16	substantially greater than for the conventional siRNA V30M-P16	more effective against V30M than V30V	–
ĞCCAUGCAUGUGUUCAGAAŨmU / UUCUGÃACACAUGCAUGGCŨmU (chain 1 GCCAUGCAUGUGUUCAGAAUU; chain 2 UUCUGAACACAUGCAUGGCUU; siRNA; chain 1: sugars from the 5' end [UNA]1 r18 [UNA]1 m1, backbone not given here; chain 2: sugars from the 5' end r5 [UNA]1 r13 [UNA]1 m1, backbone not given here) [P16U6]	effective in silencing V30M TTR	superior to the activity of the conventional siRNA V30M-P16	substantially greater than for the conventional siRNA V30M-P16	more effective against V30M than V30V	IC50 [3]: 2.12 nM; superiority of selectivity over the selectivity of 5.6 of the conventional siRNA [2]: 4 fold; selectivity against V30M over V30V [2]: 23; IC50 [2]: 0.0924 nM
ĞGCCAUGCAUGUGUUCAGAŨmU / UCUGAACACAUGCAUĞGCCŨmU (chain 1 GGCCAUGCAUGUGUUCAGAUU; chain 2 UCUGAACACAUGCAUGGCCUU; siRNA; chain 1: sugars from the 5' end [UNA]1 r18 [UNA]1 m1, backbone not given here; chain 2: sugars from the 5' end r15 [UNA]1 r3 [UNA]1 m1, backbone not given here) [P15U16]	effective in silencing V30M TTR	–	substantially greater than for the conventional siRNA V30M-P15	more effective against V30M than V30V	–
ĞGCCAUGCAUGUGUUCAGAŨmU / UCUGAACACAUGCAŨGGCCŨmU (chain 1 GGCCAUGCAUGUGUUCAGAUU; chain 2 UCUGAACACAUGCAUGGCCUU; siRNA; chain 1: sugars from the 5' end [UNA]1 r18 [UNA]1 m1, backbone not given here; chain 2: sugars from the 5' end r14 [UNA]1 r4 [UNA]1 m1, backbone not given here) [P15U15]	effective in silencing V30M TTR	–	substantially greater than for the conventional siRNA V30M-P15	more effective against V30M than V30V	–
ĞGCCAUGCAUGUGUUCAGAŨmU / UCUGAACACAUGCÃUGGCCŨmU (chain 1 GGCCAUGCAUGUGUUCAGAUU; chain 2 UCUGAACACAUGCAUGGCCUU; siRNA; chain 1: sugars from the 5' end [UNA]1 r18 [UNA]1 m1, backbone not given here; chain 2: sugars from the 5' end r13 [UNA]1 r5 [UNA]1 m1, backbone not given here) [P15U14]	effective in silencing V30M TTR	–	–	–	–
ĞGCCAUGCAUGUGUUCAGAŨmU / UCUGAAĈACAUGCAUGGCCŨmU (chain 1 GGCCAUGCAUGUGUUCAGAUU; chain 2 UCUGAACACAUGCAUGGCCUU; siRNA; chain 1: sugars from the 5' end [UNA]1 r18 [UNA]1 m1, backbone not given here; chain 2: sugars from the 5' end r6 [UNA]1 r12 [UNA]1 m1, backbone not given here) [P15U7]	effective in silencing V30M TTR	–	substantially greater than for the conventional siRNA V30M-P15	more effective against V30M than V30V	–
ĞGCCAUGCAUGUGUUCAGAŨmU / UCUGAÃCACAUGCAUGGCCŨmU (chain 1 GGCCAUGCAUGUGUUCAGAUU; chain 2 UCUGAACACAUGCAUGGCCUU; siRNA; chain 1: sugars from the 5' end [UNA]1 r18 [UNA]1 m1, backbone not given here; chain 2: sugars from the 5' end r5 [UNA]1 r13 [UNA]1 m1, backbone not given here) [P15U6]	effective in silencing V30M TTR	superior to the activity of the conventional siRNA V30M-P15	substantially greater than for the conventional siRNA V30M-P15	more effective against V30M than V30V	IC50 [3]: 0.92 nM; superiority of selectivity over the selectivity of 5.6 of the conventional siRNA [2]: 4 fold; selectivity against V30M over V30V [2]: 24; IC50 [2]: 0.0376 nM
ŨAACCAAGAGUAUUCCAUUŨmU / AAUGGAAUACUCUUGGUUAŨmU (chain 1 UAACCAAGAGUAUUCCAUUUU; chain 2 AAUGGAAUACUCUUGGUUAUU; siRNA; chain 1: sugars from the 5' end [UNA]1 r18 [UNA]1 m1, backbone not given here; chain 2: sugars from the 5' end r19 [UNA]1 m1, backbone not given here) [SEQ ID NO:60/100]	–	–	–	–	knockdown of TTR (Transthyretin TTR mRNA; at 20 days, single IV dose 0.3 mg/kg, primates): over 91%; knockdown of TTR (Transthyretin TTR mRNA; continuous duration of more than 20 days, single IV dose 0.3 mg/kg, primates): more than 70%; TTR protein levels (Transthyretin TTR mRNA; continuous duration of more than one month (30 days), single injection, primates): below 50%; knockdown of Transthyretin protein in vivo (Transthyretin TTR mRNA; liposomal formulation, male Cynomolgus monkeys, single IV dose 0.3 mg/kg, plasma): achieved
